Patent publication US20090028832A1, “Compositions and methods for targeted tumor therapy” (priority 2006, published 2009)

Legend:
Format in all cases: cell-based
ARCaPE cells = test: Chemotherapeutic sensitivity, cell growth by MTT assay, ARCaPE cells; details: Homo sapiens, in vitro growth, 96 hrs incubation
Protocol: (§1) Cells (5×10^3 per well) were cultured in 96-well plates for 24 hr and then replaced with fresh cultured medium to which were added Paclitaxel, Etoposide, or Doxorubicin (Sigma, St. Louis, Mo.) at 4 different concentrations, followed by incubation for 96 hrs. Cell growth was measured using the MTT assay.

ARCaPM cells = test: Chemotherapeutic sensitivity, cell growth by MTT assay, ARCaPM cells; details: Homo sapiens, in vitro growth, 96 hrs incubation
Protocol: as §1

C4-2 cells = test: Chemotherapeutic sensitivity, cell growth by MTT assay, C4-2 cells; details: Homo sapiens, invasive LNCaP lineage C4-2 cells, in vitro growth
Protocol: as §1

SMILES	IC50 (ARCaPE cells)	IC50 (ARCaPM cells)	IC50 (C4-2 cells)
COc1cc([C@@H]2c3cc4c(cc3[C@@H](O[C@@H]3O[C@@H]5CO[C@@H](C)O[C@H]5[C@H](O)[C@H]3O)[C@H]3COC(=O)[C@H]23)OCO4)cc(OC)c1O [etoposide]	8.1 µM	5.8 µM	5.6 µM
COc1cccc2c1C(=O)c1c(O)c3c(c(O)c1C2=O)C[C@@](O)(C(=O)CO)C[C@@H]3O[C@H]1C[C@H](N)[C@H](O)[C@H](C)O1 [doxorubicin]	3.4 µM	5.5 µM	2.7 µM
CC(=O)O[C@H]1C(=O)[C@@]2(C)[C@H]([C@H](OC(=O)c3ccccc3)[C@]3(O)C[C@H](OC(=O)[C@H](O)[C@@H](NC(=O)c4ccccc4)c4ccccc4)C(C)=C1C3(C)C)[C@]1(OC(C)=O)CO[C@@H]1C[C@@H]2O [paclitaxel]	0.053 µM	0.039 µM	0.0235 µM
